Toxic doses and inconclusive results are not listed. The calls were made as follows: active = survival T/C of 150% or more; inactive = T/C below 125% in these data.
System: CD2F1 mice, L1210 leukemia ip, survival T/C
Experiment: NCI In Vivo Anticancer Drug Screen. Data for tumor model L1210 Leukemia (intraperitoneal) in CD2F1 (CDF1) mice
Details: endpoint: mean survival time, higher = longer survival
In short: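 Antitumor effect is scored in animals hosting a serially transplanted tumor. Values compare compound-dosed animals against vehicle-only controls as a simple quotient.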

[1] = dose: 75.0 mg/kg/injection, schedule: Q01DX001 (ip), vehicle: saline
[2] = dose: 150.0 mg/kg/injection, schedule: Q01DX001 (ip), vehicle: saline
[3] = dose: 100.0 mg/kg/injection, schedule: Q04DX002 (ip), vehicle: saline with Tween-80
[4] = dose: 200.0 mg/kg/injection, schedule: Q04DX002 (ip), vehicle: saline with Tween-80
[5] = dose: 100.0 mg/kg/injection, schedule: Q01DX001 (ip), vehicle: saline with Tween-80
[6] = dose: 200.0 mg/kg/injection, schedule: Q01DX001 (ip), vehicle: saline with Tween-80
[7] = dose: 100.0 mg/kg/injection, schedule: Q04DX003 (ip), vehicle: saline with Tween-80
[8] = dose: 200.0 mg/kg/injection, schedule: Q04DX003 (ip), vehicle: saline with Tween-80
[9] = dose: 400.0 mg/kg/injection, schedule: Q04DX003 (ip), vehicle: saline with Tween-80
[10] = dose: 100.0 mg/kg/injection, schedule: Q01DX009 (ip), vehicle: saline with Tween-80
[11] = dose: 50.0 mg/kg/injection, schedule: Q01DX009 (ip), vehicle: saline with Tween-80
[12] = dose: 12.5 mg/kg/injection, schedule: Q01DX009 (ip), vehicle: Klucel (hydroxypropylcellulose) (HPC)
[13] = dose: 25.0 mg/kg/injection, schedule: Q01DX009 (ip), vehicle: Klucel (hydroxypropylcellulose) (HPC)
[14] = dose: 50.0 mg/kg/injection, schedule: Q01DX009 (ip), vehicle: Klucel (hydroxypropylcellulose) (HPC)

Measured: T/C

Nc1ncc(N)c(N)n1
inactive: dose: 250.0 mg/kg/injection, schedule: Q04DX003 (ip), vehicle: saline sonified 102 % of control | dose: 500.0 mg/kg/injection, schedule: Q04DX003 (ip), vehicle: saline sonified 98 % of control | dose: 1000.0 mg/kg/injection, schedule: Q04DX003 (ip), vehicle: saline sonified 103 % of control

CC(C)c1cc(O)c(C(C)C)cc1O
inactive: [1] 104 % of control | [2] 111 % of control

CCCCCC(O)/C=C/Sc1n[nH]c(=O)[nH]c1=O (configuration not stated)
inactive: dose: 12.5 mg/kg/injection, schedule: Q01DX005 (ip), vehicle: distilled water + Tween-80 104 % of control | dose: 25.0 mg/kg/injection, schedule: Q01DX005 (ip), vehicle: distilled water + Tween-80 94 % of control | dose: 50.0 mg/kg/injection, schedule: Q01DX005 (ip), vehicle: distilled water + Tween-80 98 % of control | dose: 100.0 mg/kg/injection, schedule: Q01DX005 (ip), vehicle: distilled water + Tween-80 90 % of control | dose: 200.0 mg/kg/injection, schedule: Q01DX005 (ip), vehicle: distilled water + Tween-80 93 % of control

COC(=O)[C@H]1[C@H]2C[C@@H]3c4[nH]c5cc(OC)ccc5c4CCN3C[C@H]2C[C@@H](OC(=O)/C=C/c2cc(OC)c(OC)c(OC)c2)[C@@H]1OC
inactive: dose: 0.63 mg/kg/injection, schedule: Q01DX009 (ip), vehicle: saline sonified 86 % of control | dose: 1.25 mg/kg/injection, schedule: Q01DX009 (ip), vehicle: saline sonified 96 % of control | dose: 2.5 mg/kg/injection, schedule: Q01DX009 (ip), vehicle: saline sonified 90 % of control | dose: 5.0 mg/kg/injection, schedule: Q04DX003 (ip), vehicle: saline with Tween-80 95 % of control | dose: 10.0 mg/kg/injection, schedule: Q04DX003 (ip), vehicle: saline with Tween-80 101 % of control | dose: 20.0 mg/kg/injection, schedule: Q04DX003 (ip), vehicle: saline with Tween-80 112 % of control

COc1ccccc1NC(=O)Oc1ccc(Cl)cc1Cl
inactive: [3] 103 % of control | [4] 95 % of control

C=CC(=C)CCC=C(C)C
inactive: dose: 50.0 mg/kg/injection, schedule: Q01DX009 (ip), vehicle: acetone 96 % of control | dose: 100.0 mg/kg/injection, schedule: Q01DX009 (ip), vehicle: acetone 91 % of control | dose: 200.0 mg/kg/injection, schedule: Q01DX009 (ip), vehicle: acetone 96 % of control

O=C(O)CCn1cccc1
inactive: [5] 91 % of control | [6] 89 % of control

O=C(COc1ccc(Cl)cc1Cl)OCCI
inactive: [3] 97 % of control | [4] 102 % of control

O=C(NO)Nc1ccc(Cl)cc1
inactive: dose: 8.0 mg/kg/injection, schedule: Q03HX024 (ip), vehicle: other 95 % of control | dose: 16.0 mg/kg/injection, schedule: Q03HX024 (ip), vehicle: other 92 % of control | dose: 32.0 mg/kg/injection, schedule: Q03HX024 (ip), vehicle: other 95 % of control | dose: 62.0 mg/kg/injection, schedule: Q03HX024 (ip), vehicle: saline with Tween-80 106 % of control | dose: 64.0 mg/kg/injection, schedule: Q03HX024 (ip), vehicle: other 93 % of control | dose: 93.0 mg/kg/injection, schedule: Q03HX024 (ip), vehicle: saline with Tween-80 100 % of control | [7] 97 % of control | dose: 128.0 mg/kg/injection, schedule: Q03HX024 (ip), vehicle: other 96 % of control | [8] 100 % of control | [9] 95 % of control

NCCNCC(=O)O
inactive: dose: 100.0 mg/kg/injection, schedule: Q04DX003 (ip), vehicle: saline 97 % of control | dose: 200.0 mg/kg/injection, schedule: Q04DX003 (ip), vehicle: saline 93 % of control | dose: 400.0 mg/kg/injection, schedule: Q04DX003 (ip), vehicle: saline 97 % of control

CCCCCCCCCCCC(=O)CCCCC
inactive: dose: 100.0 mg/kg/injection, schedule: Q04DX003 (ip), vehicle: other 96 % of control | dose: 200.0 mg/kg/injection, schedule: Q04DX003 (ip), vehicle: other 97 % of control | dose: 400.0 mg/kg/injection, schedule: Q04DX003 (ip), vehicle: other 97 % of control

C(=C1c2ccccc2-c2ccccc21)c1cccnc1
inactive: [10] 98 % of control | [7] 101 % of control | dose: 200.0 mg/kg/injection, schedule: Q01DX009 (ip), vehicle: saline with Tween-80 102 % of control | [8] 101 % of control | dose: 400.0 mg/kg/injection, schedule: Q01DX009 (ip), vehicle: saline with Tween-80 88 % of control | [9] 95 % of control

O=c1c2cccc3cccc(c32)c2cc(-c3ccccc3)nn12
inactive: dose: 25.0 mg/kg/injection, schedule: Q04DX002 (ip), vehicle: saline with Tween-80 100 % of control | dose: 50.0 mg/kg/injection, schedule: Q04DX002 (ip), vehicle: saline with Tween-80 92 % of control | [3] 96 % of control | [4] 103 % of control

Clc1ccc(C(=C(c2ccc(Cl)cc2)c2ccc(Cl)cc2)c2ccc(Cl)cc2)cc1
inactive: [1] 100 % of control | [2] 95 % of control | dose: 300.0 mg/kg/injection, schedule: Q01DX001 (ip), vehicle: saline 93 % of control

O=C(CC(O)(C(F)(F)F)C(F)(F)F)c1ccco1
inactive: [11] 116 % of control | [10] 110 % of control | [7] 105 % of control | [8] 100 % of control

CCCCn1c(C)nc2c(N)cc(C(F)(F)F)cc21
inactive: [12] 100 % of control | dose: 25.0 mg/kg/injection, schedule: Q01DX001 (ip), vehicle: Klucel (hydroxypropylcellulose) (HPC) 96 % of control | [13] 91 % of control | dose: 25.0 mg/kg/injection, schedule: Q04DX003 (ip), vehicle: Klucel (hydroxypropylcellulose) (HPC) 96 % of control | dose: 50.0 mg/kg/injection, schedule: Q01DX001 (ip), vehicle: Klucel (hydroxypropylcellulose) (HPC) 102 % of control | [14] 100 % of control | dose: 50.0 mg/kg/injection, schedule: Q04DX003 (ip), vehicle: Klucel (hydroxypropylcellulose) (HPC) 100 % of control | dose: 100.0 mg/kg/injection, schedule: Q01DX001 (ip), vehicle: Klucel (hydroxypropylcellulose) (HPC) 97 % of control | dose: 100.0 mg/kg/injection, schedule: Q01DX009 (ip), vehicle: Klucel (hydroxypropylcellulose) (HPC) 102 % of control | dose: 100.0 mg/kg/injection, schedule: Q04DX003 (ip), vehicle: Klucel (hydroxypropylcellulose) (HPC) 93 % of control | dose: 200.0 mg/kg/injection, schedule: Q01DX001 (ip), vehicle: Klucel (hydroxypropylcellulose) (HPC) 94 % of control | dose: 200.0 mg/kg/injection, schedule: Q04DX003 (ip), vehicle: Klucel (hydroxypropylcellulose) (HPC) 100 % of control

O=C(O)Cc1cc2c(cc1I)OCO2
inactive: [7] 100 % of control | [8] 95 % of control | [9] 101 % of control

O=C(Cc1ccccc1)C(O)c1ccccc1 (configuration not stated)
inactive: [5] 86 % of control | [6] 92 % of control | dose: 400.0 mg/kg/injection, schedule: Q01DX001 (ip), vehicle: saline with Tween-80 87 % of control

O=C1c2cc([N+](=O)[O-])ccc2-c2ccc([N+](=O)[O-])cc21
inactive: [12] 98 % of control | [13] 95 % of control | [14] 102 % of control

C/C=C/C(=O)Nc1ccc(Cl)c(Cl)c1
inactive: dose: 25.0 mg/kg/injection, schedule: Q01DX001 (ip), vehicle: saline with Tween-80 102 % of control | dose: 50.0 mg/kg/injection, schedule: Q01DX001 (ip), vehicle: saline with Tween-80 101 % of control | [5] 95 % of control

COc1cc2c(cc1OC)C1Cc3ccc4cc(OC)c(OC)cc4c3CN1CC2 (configuration not stated)
inactive: dose: 100.0 mg/kg/injection, schedule: Q01DX009 (ip), vehicle: saline 94 % of control | [7] 102 % of control | [8] 93 % of control | [9] 94 % of control

c1ccc(CCN2CCC(CCc3c[nH]c4ccccc34)CC2)cc1
inactive: [11] 107 % of control | dose: 50.0 mg/kg/injection, schedule: Q04DX003 (ip), vehicle: saline with Tween-80 110 % of control | [7] 104 % of control | [8] 92 % of control

C=CC[n+]1ccccc1Cc1ccccc1
inactive: dose: 25.0 mg/kg/injection, schedule: Q01DX001 (ip), vehicle: saline 98 % of control | dose: 50.0 mg/kg/injection, schedule: Q01DX001 (ip), vehicle: saline 95 % of control

Source: PubChem BioAssay AID256 (DTP/NCI, 2004)
